Drawing on PubChem BioAssay (NCI), this text covers TGI and GI50 for 15 compounds.

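All cell lines were grown in 96-well plates and treated with compound for 48 hours. At the GI50, growth is halved. TGI: concentration producing complete growth inhibition.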 A value given as a limit tells only on which side of the number the result lay.

Common to all, as to experiment: growth of human tumour cells (NCI), 48 h
Experiment [1] deals with CAKI-1 renal.
Experiment [2] relates to EKVX NSCLC.
The subject of experiment [3] is HCT-116 colon.
For experiment [4], the system named is LOX IMVI melanoma.
The test system of experiment [5] is NCI-H226 lung.
The test system of experiment [6] is SF-539 CNS.
The subject of experiment [7] is SK-MEL-5 melanoma.
Experiment [8] relates to SNB-19 CNS.
The test system of experiment [9] is UACC-62 melanoma.

`COC(=O)C1=C(C(=O)OC)SC(=C(N=Nc2ccccc2)c2ccccc2)S1`: the TGI in experiment [1], in experiment [2], in [3], in experiment [4], in experiment [5] and in experiment [6] was over 100 µM in each case. Moreover, the TGI in experiment [7], in [8] and in experiment [9] was over 100 µM throughout.
For `C=C1CCc2occ(C)c2C2C1C1=C(CC(C)C1=O)C1OC12C` (centres undefined), the TGI in experiment [2], in experiment [3], in experiment [4], in experiment [5], in [6] and in experiment [7] was over 100 µM throughout. The TGI in experiment [8] and in experiment [9] was over 100 µM each time.
For the compound `CC1CCC(C(C)C)C(O[C@@H]2OC(=O)C[C@@H]2Sc2ccccc2)C1` (some centres undefined), the TGI in experiment [1] worked out at 63.6 µM; in experiment [2], 93.6 µM; in experiment [3] it was 74 µM; in experiment [4] it was 26.3 µM; in experiment [6] it was 61.8 µM; in experiment [7], 30.3 µM. In addition, the TGI in experiment [8] and in experiment [9] was over 100 µM each time.
With `O=C1c2ccccc2CC1C1(O)C(=O)Nc2ccccc21` (centres undefined), the TGI in experiment [1], in experiment [2], in experiment [3], in experiment [4], in [5] and in experiment [6] was over 100 µM in each case. For the same compound, the TGI in experiment [7], in experiment [8] and in experiment [9] was over 100 µM each time.
Regarding `CCOC(=O)c1nc(-c2ccccc2)oc1OCC`, the TGI in experiment [2] is 38.6 µM; in experiment [3], over 100 µM; in experiment [4] it was over 100 µM; in experiment [5] it was over 100 µM; in experiment [6], over 100 µM; in [7], over 100 µM. For the same compound, the TGI in [8] and in [9] was over 100 µM in each case.
Turning to `N.N.NCCCCCCN.O=C([O-])CC(=O)[O-].O=C([O-])CC(=O)[O-].[Pt+4].[Pt+4]`, the GI50 was 26.6 µM in [1]; over 100 µM in experiment [2]; over 100 µM in [3]; over 100 µM in experiment [4]; over 56.7 µM in experiment [5]; 73.9 µM in experiment [6]. Also, the GI50 was over 100 µM in experiment [7], over 72.1 µM in [8] and 10.5 µM in experiment [9]. In addition, the TGI in experiment [1], in [2], in experiment [3], in experiment [4], in experiment [5] and in experiment [6] was over 100 µM each time. Further, the TGI in experiment [7], in experiment [8] and in experiment [9] was over 100 µM each time.
Take `COc1cc(/C=C/C(=O)c2sc(NNC(C)=O)nc2C)ccc1O`: the TGI in experiment [1], in experiment [2], in experiment [4], in [5], in experiment [6] and in experiment [7] was over 100 µM in each case. Also, the TGI in experiment [9] is over 100 µM.
On to `C[C@@H](NC1CCC[C@H]1O)c1ccccc1` (some centres undefined), for which the TGI in experiment [1], in experiment [2], in experiment [3], in experiment [4], in [5] and in [7] was over 100 µM in each case. For the same compound, the TGI in [8] and in experiment [9] was over 100 µM in each case.
Consider `CS/C(=N\c1nccs1)NC(=O)c1cccc(Cl)c1`, for which the TGI in experiment [1], in experiment [2], in [3], in experiment [4], in [5] and in [6] was over 100 µM in each case. Further, the TGI in experiment [7], in experiment [8] and in experiment [9] was over 100 µM in each case.
For `COC(=O)C1=C(O)c2cc3c(cc2[C@H](c2cc(OC)c(OC)c(OC)c2)C1C(=O)OC)OCO3` (some centres undefined), the TGI is 89.6 µM in [1]; over 100 µM in experiment [2]; over 100 µM in experiment [3]; over 100 µM in [4]; over 100 µM in experiment [5]; over 100 µM in experiment [6]. Further, the TGI in experiment [7] was over 100 µM; in experiment [8] it was over 100 µM; in experiment [9], 99.4 µM.
`O=C1CCC2(c3ccccc3)Nc3ncccc3N12` (centres undefined): the TGI in experiment [1], in experiment [2], in [4], in experiment [5], in experiment [6] and in experiment [7] was over 100 µM in each case. The compound further returned a TGI in [9] of over 100 µM.
For the compound `COC(=O)c1cc(-c2cccn2C)c2c(c1C(=O)OC)c1ccccc1n2C`, the TGI in experiment [4], in [6], in [7], in experiment [8] and in experiment [9] was over 100 µM throughout.
Regarding `CC#CC1C(OC(=O)c2ccccc2)CCCC1(CI)N=[N+]=[N-]` (centres undefined), the TGI in experiment [1] is over 100 µM; in [2], over 100 µM; in experiment [3] it was over 100 µM; in experiment [5], over 100 µM; in experiment [6], over 100 µM; in experiment [7], 42.2 µM. The TGI in [9] was over 100 µM.
Turning to `O=C1NC2C=CN(Cc3ccccc3)C=C2C(=O)N2CCCC12` (centres undefined), the TGI in experiment [1], in experiment [2], in [3], in experiment [5], in [6] and in experiment [7] was over 100 µM in each case. Moreover, the TGI in experiment [8] and in experiment [9] was over 100 µM each time.
For the compound `N#Cc1cc([N+](=O)[O-])ccc1NC(=O)/C(=N/N)C(C(=O)c1ccc(Cl)c(Cl)c1)C1OC(=O)c2ccccc21` (centres undefined), the TGI in [1], in experiment [2], in experiment [3], in experiment [4], in experiment [5] and in experiment [6] was over 100 µM throughout. In addition, the TGI in [7], in experiment [8] and in [9] was over 100 µM throughout.
